Values quoted from earlier work, collected in patent US20220056154A1, “Bispecific Antibody Compositions and Methods for Treating COVID-19” (priority 2020, published 2022).

Biological target: hACE2 (Homo sapiens, UniProt Q9BYF1)
Details: 10 μM lisinopril, 10 μM captopril, 10 μM enalaprilat, 100 μM benzyl succinate, 10 mM EDTA; 100 μM angiotensin II; 37° C., 2 hours

Chain of hACE2 (Q9BYF1 18-805): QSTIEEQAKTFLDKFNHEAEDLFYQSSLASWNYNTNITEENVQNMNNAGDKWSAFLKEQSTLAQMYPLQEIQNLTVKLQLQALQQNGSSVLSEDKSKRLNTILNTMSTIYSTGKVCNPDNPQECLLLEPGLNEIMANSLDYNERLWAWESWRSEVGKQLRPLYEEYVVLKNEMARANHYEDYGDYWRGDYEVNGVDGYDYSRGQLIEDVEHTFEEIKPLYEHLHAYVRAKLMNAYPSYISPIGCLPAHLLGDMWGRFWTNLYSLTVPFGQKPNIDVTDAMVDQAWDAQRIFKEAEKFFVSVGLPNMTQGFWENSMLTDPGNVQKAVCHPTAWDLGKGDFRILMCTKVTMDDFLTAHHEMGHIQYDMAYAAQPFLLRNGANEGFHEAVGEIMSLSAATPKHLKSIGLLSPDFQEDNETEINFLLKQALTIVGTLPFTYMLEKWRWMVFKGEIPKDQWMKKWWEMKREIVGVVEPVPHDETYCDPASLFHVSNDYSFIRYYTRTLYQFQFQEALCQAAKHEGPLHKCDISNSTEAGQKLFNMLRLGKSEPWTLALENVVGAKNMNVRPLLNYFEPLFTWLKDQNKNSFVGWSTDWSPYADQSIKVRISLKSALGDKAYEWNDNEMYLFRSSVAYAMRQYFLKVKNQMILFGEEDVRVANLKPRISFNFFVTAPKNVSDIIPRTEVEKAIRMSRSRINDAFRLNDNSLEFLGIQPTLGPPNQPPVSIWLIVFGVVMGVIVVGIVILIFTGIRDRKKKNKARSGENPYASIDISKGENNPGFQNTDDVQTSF

SMILES | inhibition of hACE2 activity (angiotensin II cleavage)
O=C(O)CN(CCN(CC(=O)O)CC(=O)O)CC(=O)O [EDTA] | inhibits hACE2 activity
O=C(O)CC(Cc1ccccc1)C(=O)O (centres unmarked) [benzyl succinate] | none of lisinopril, captopril, enalaprilat, and benzyl succinate (a carboxypeptidase A inhibitor) inhibits hACE2 activity
